Columns and labels:
[1] = molecular target: T1, P-Rex1 DHPH domains (Homo sapiens, UniProt Q8TCU6); test: Liposome-based GEF activity assay, isolated P-Rex1 DHPH domains; assay type: biochemical; details: for P-Rex1 Rac-GEF activity reduced to / remaining activity at 10 µM: 10 µM compound; for P-Rex1 Rac-GEF activity reduced to: P-Rex1 DHPH domains; for IC50: liposome-based GEF assay, 200 nM prenylated EE-Rac2 as substrate, read-out: IC50 of inhibition of P-Rex1 DHPH Rac-GEF activity
T1 construct: 100 nM EE-P-Rex1 DHPH domains (PREX-in1, compounds 2–10 and 30–128); made in house; host or cells: Sf9 cells (baculovirus)
T1 sequence (Q8TCU6 49-392 limits assumed): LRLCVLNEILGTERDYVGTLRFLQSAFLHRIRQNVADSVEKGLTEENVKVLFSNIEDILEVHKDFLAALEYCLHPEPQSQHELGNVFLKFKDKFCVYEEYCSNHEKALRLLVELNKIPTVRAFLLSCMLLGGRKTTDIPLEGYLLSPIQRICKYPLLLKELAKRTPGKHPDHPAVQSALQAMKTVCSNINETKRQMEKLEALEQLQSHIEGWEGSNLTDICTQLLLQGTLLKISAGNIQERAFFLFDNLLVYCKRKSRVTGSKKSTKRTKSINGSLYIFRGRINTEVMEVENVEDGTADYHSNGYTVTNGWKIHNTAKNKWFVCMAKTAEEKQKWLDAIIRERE
Experimental: (§1) Full-length N-terminally EE-tagged P-Rex1, P-Rex2, the P-Rex1 DH and DHPH domains and the P-Rex2 DH domain were produced in Sf9 cells using baculoviral transduction and were purified using anti-EE beads, as previously described. Briefly, frozen pellets from 500 ml of Sf9 culture infected with P-Rex expressing high-titre baculovirus were resuspended in ice-cold lysis Sf9-cell lysis buffer 2 (1x PBS, 1% Triton X-100, 5 mM EGTA, 1 mM EDTA, 25 mM NaF, 20 mM β-glycerophosphate, 1 mM DTT, 100 µM PMSF, 10 μg/ml each of leupeptin, pepstatin A, aprotinin and antipain) for 5 min and then ultracentrifuged at 118,000 × g for 1 h at 4°C. Supernatants were incubated with pre-washed anti-EE beads for 90 min on ice with end-over-end rotation. Beads were washed 4 times in wash buffer (2x PBS, 0.1% Triton X-100, 1 mM EGTA) and 5 times in elution buffer (1x PBS, 10% glycerol, 1 mM DTT, 1 mM EGTA, 0.01% Na azide), and protein was eluted by incubation with elution buffer containing Ac-EEYMPME peptide as described above. Protein was concentrated in a YM-100 Centricon (Millipore) at 5000 × g at 4°C. Fatty acid-free BSA and glycerol were added to final concentrations of 2 mg/ml and 50%, respectively. Protein concentration and purity were determined by coomassie staining of SDS-PAGE gels. Full-length Tiam1, expressed in and purified from Sf9 cells, was a kind gift from Angeliki Malliri, CRUK Manchester Institute, UK. The ITSN1 DHPH domains and Ect2 DHPH domains, produced in and purified from bacteria, were a kind gift from Kent Rossman, University of North Carolina, Chapel Hill, USA. The DOCK10 DHR2 domain, produced in and purified from bacteria, was a kind gift from Danni Fan, Institute of Cancer Research, London, UK. All small GTPase and GEF proteins were stored in aliquots at −80°C and were snap-frozen in liquid N2 after each use.
Liposome-based GEF activity assays were carried out essentially as described, except that GEFs were incubated with inhibitor compounds prior to the assay. GEFs (full-length P-Rex1, P-Rex2, and Tiam1, P-Rex1 DH and DHPH domains, P-Rex2 DH domain, ITSN1 DHPH domains, ECT2 DHPH domains or DOCK10 DHR2 domain) were diluted in 20 mM HEPES (pH 7.0 at 4°C), 200 mM KCl, 10% ethylene glycerol, 1% betaine, 500 µM EGTA, 0.01% azide. […] The final 10 µl samples contained GTPase, GEF and inhibitor at concentrations as stated, in 20 mM HEPES pH 7.5, 100 mM NaCl, 1 mM MgCl2, 1 mM EGTA, 1 mM DTT, 10 mg/ml fatty acid-free BSA, liposomes consisting of phosphatidylcholine, -serine and -inositol (200 µM each), with or without 10 µM PIP3, 1 µM GTPγS and 80 nM (1 µCi) ^35S-GTPγS. Positive controls contained additionally 2 mM EDTA to induce maximal GTP-loading of the GTPase. Samples were incubated at 30°C for 10 min, and reactions were stopped by the addition of 400 µl ice-cold wash buffer (1x PBS, 1 mM EGTA, 10 mM MgCl2, 1% Triton X-100, 100 µM GTP). Small GTPases were isolated using anti-EE antibody-coupled Sepharose beads or glutathione Sepharose beads, as appropriate, by incubation on ice for 90 min with end-over-end rotation, four washes in ice-cold wash buffer and resuspension of beads in Ultima Gold scintillation fluid (Perkin Elmer). ^35S-GTPγS incorporation was assessed by scintillation counting (Packard 1600TR, Liquid Scintillation Analyser).

[2] = molecular target: T2, P-Rex1 DH domain (Homo sapiens, UniProt Q8TCU6); test: Liposome-based GEF activity assay, isolated P-Rex1 DH domain; assay type: biochemical; details: 10 µM compound
T2 construct: 200 nM iDH EE-P-Rex1 DH domain (compounds 11–29); made in house; host or cells: Sf9 cells (baculovirus)
T2 sequence (Q8TCU6 49-240 limits assumed): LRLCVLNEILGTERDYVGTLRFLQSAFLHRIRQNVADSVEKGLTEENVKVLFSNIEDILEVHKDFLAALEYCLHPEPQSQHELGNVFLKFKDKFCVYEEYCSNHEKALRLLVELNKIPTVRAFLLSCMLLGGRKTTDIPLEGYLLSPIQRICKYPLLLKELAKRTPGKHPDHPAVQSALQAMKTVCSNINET
Experimental: as §1, with “The ITSN1 DHPH domains and Ect2 DHPH domains, produced in and purified from bacteria, were a kind gift from Kent Rossman, University of North Carolina, Chapel Hill, USA. The DOCK10 DHR2 domain, produced in and purified from bacteria, was a kind gift from Danni Fan, Institute of Cancer Research, London, UK. All small GTPase and GEF proteins were stored in aliquots at −80°C and were snap-frozen in liquid N2 after each use.” left out
Liposome-based GEF activity assays were carried out essentially as described, except that GEFs were incubated with inhibitor compounds prior to the assay. […] Small GTPases were isolated using anti-EE antibody-coupled Sepharose beads or glutathione Sepharose beads, as appropriate, by incubation on ice for 90 min with end-over-end rotation, four washes in ice-cold wash buffer and resuspension of beads in Ultima Gold scintillation fluid (Perkin Elmer). ^35S-GTPγS incorporation was assessed by scintillation counting (Packard 1600TR, Liquid Scintillation Analyser).

[3] = 100 nM EE-P-Rex1 DHPH domains, 200 nM prenylated EE-Rac1, PREX-in1, compounds 2-10 and 30-128

| Structure (SMILES) | P-Rex1 Rac-GEF activity reduced to [1] | remaining activity at 10 µM [1, 3] | P-Rex1 Rac-GEF activity reduced to ([2]; P-Rex1 DH domain) | remaining activity at 10 µM ([2]; 200 nM EE-P-Rex1 DH domain, 200 nM prenylated EE-Rac1, compounds 11-29) | IC50 [1] | % P-Rex1 activity remaining [1, 3] |
| --- | --- | --- | --- | --- | --- | --- |
| COc1ccc(-c2ccc(C3C(C#N)=C(N)Oc4n[nH]c(-c5ccc(C)cc5)c43)o2)cc1Cl (stereo not shown) [#72] | below 10% | 1.69% |  |  |  |  |
| CCc1[nH]nc2c1C(c1ccc(-c3ccc(Cl)cc3)o1)C(C#N)=C(N)O2 (stereo not shown) [#26] |  |  | below 10% | 4% |  |  |
| COc1ccc(-c2ccc(C3C(C#N)=C(N)Oc4n[nH]c(-c5ccc(Cl)cc5)c43)o2)cc1Cl (stereo not shown) [#76] | below 10% | -2.19% |  |  |  |  |
| COc1ccc(-c2[nH]nc3c2C(c2ccc(-c4ccc(OC)c(Cl)c4)o2)C(C#N)=C(N)O3)cc1 (stereo not shown) [#61] | below 10% | 2% |  |  | 2000 nM |  |
| COc1cc(NC(=O)c2ccc(-c3ccc(Cl)cc3)o2)cc(OC)c1 [#66] |  |  |  |  |  | 58% |
| N#CC1=C(N)Oc2n[nH]c(-c3ccc(C(F)(F)F)cc3)c2C1c1ccc(-c2ccc(Cl)cc2)o1 (stereo not shown) [#116] | below 10% | 9% |  |  | 2700 nM |  |

From PMC9645260, “Small-molecule inhibitors of P-Rex guanine-nucleotide exchange factors” (Small GTPases, 2022)
